In PMC6472001, “Phenolic Compounds from Humulus lupulus as Natural Antimicrobial Products: New Weapons in the Fight against Methicillin Resistant Staphylococcus aureus, Leishmania mexicana and Trypanosoma brucei Strains” (Molecules, 2019):

Assays:
Type in all cases: cell-based
[1] = test system: Acinetobacter baumannii 9010; test: First screening, agar dilution MIC
Procedure: (§1) Clinical bacterial isolates from human samples collected in Lille (France) and some collection strains were used. The first screening step on pathogenic bacteria was carried out with crude hydro-alcoholic extracts of different hop parts (Table 1). The second screening was performed using sub-extracts of cones on Gram-positive bacteria, including methicillin-sensitive Staphylococcus aureus (MSSA) and methicillin-resistant Staphylococcus aureus […] (Table 2). These tests were carried out on Petri dishes, Mueller-Hinton Agar (MHA) (Oxoid, UK) was mixed with the plant extract solution in MeOH at 5% (solvent control: 5% MeOH). Final extract concentrations in Petri dishes ranged from 1250 to 4.9 µg/mL. A multi-headed inoculator allowed spotting bacterial strains at 10^5 CFU/mL in cysteinated Ringer (CR) solution (Merck®, France). Minimal Inhibitory Concentrations (MICs) were visually determined after 24 h of incubation at 37 °C.

[2] = test system: Acinetobacter baumannii 9011; test: First screening, agar dilution MIC
Procedure: as §1

[3] = test system: Citrobacter freundii 11041; test: First screening, agar dilution MIC
Procedure: as §1

[4] = test system: Citrobacter freundii 11042; test: First screening, agar dilution MIC
Procedure: as §1

Corynebacterium T25-17 [5] = test: First screening, agar dilution MIC
Procedure: as §1

[6] = test system: Enterobacter cloacae 11050; test: First screening, agar dilution MIC
Procedure: as §1

[7] = test system: Enterobacter cloacae 11051; test: First screening, agar dilution MIC
Procedure: as §1

[8] = test system: Enterobacter cloacae 11053; test: First screening, agar dilution MIC
Procedure: as §1

[9] = test system: Enterococcus faecalis C159-6; test: First screening, agar dilution MIC
Procedure: as §1

Enterococcus sp. 8153 = test: First screening, agar dilution MIC
Procedure: as §1

Escherichia coli 8138 = test: First screening, agar dilution MIC
Procedure: as §1

Escherichia coli 8157 = test: First screening, agar dilution MIC
Procedure: as §1

[10] = test system: Escherichia coli ATCC 25922; test: First screening, agar dilution MIC
Procedure: as §1

[11] = test system: Klebsiella pneumoniae 11016; test: First screening, agar dilution MIC
Procedure: as §1

[12] = test system: Klebsiella pneumoniae 11017; test: First screening, agar dilution MIC
Procedure: as §1

[13] = test system: Mycobacterium smegmatis 5003; test: First screening, agar dilution MIC
Procedure: as §1

Proteus mirabilis 11060 = test: First screening, agar dilution MIC
Procedure: as §1

[14] = test system: Providencia stuartii 11038; test: First screening, agar dilution MIC
Procedure: as §1

[15] = test system: Pseudomonas aeruginosa 8131; test: First screening, agar dilution MIC
Procedure: as §1

[16] = test system: Pseudomonas aeruginosa ATCC 27583; test: First screening, agar dilution MIC
Procedure: as §1

Salmonella sp. 11033 = test: First screening, agar dilution MIC
Procedure: as §1

[17] = test system: Serratia marcescens 11056; test: First screening, agar dilution MIC
Procedure: as §1

[18] = test system: Serratia marcescens 11057; test: First screening, agar dilution MIC
Procedure: as §1

[19] = test system: Staphylococcus aureus 8146; test: First screening, agar dilution MIC
Procedure: as §1

[20] = test system: Staphylococcus aureus 8147; test: First screening, agar dilution MIC
Procedure: as §1

[21] = test system: Staphylococcus epidermidis 10282; test: First screening, agar dilution MIC
Procedure: as §1

[22] = test system: Staphylococcus epidermidis 5001; test: First screening, agar dilution MIC
Procedure: as §1

[23] = test system: Staphylococcus lugdunensis T26A3; test: First screening, agar dilution MIC
Procedure: as §1

[24] = test system: Staphylococcus warneri T12A12; test: First screening, agar dilution MIC
Procedure: as §1

[25] = test system: Stenotrophomonas maltophilia; test: First screening, agar dilution MIC
Procedure: as §1

[26] = test system: Streptococcus agalactiae T25-7; test: First screening, agar dilution MIC
Procedure: as §1

[27] = test system: Streptococcus agalactiae T53C2; test: First screening, agar dilution MIC
Procedure: as §1

[28] = test system: Streptococcus dysgalactiae T46C14; test: First screening, agar dilution MIC
Procedure: as §1

Corynebacterium T25-17 [29] = test: Second screening, agar dilution MIC; conditions: Table 2
Procedure: as §1

[30] = test system: Enterococcus faecalis T26-B7; test: Second screening, agar dilution MIC
Procedure: as §1

[31] = test system: Enterococcus faecalis T34-2; test: Second screening, agar dilution MIC
Procedure: as §1

[32] = test system: Enterococcus faecalis T37A4; test: Second screening, agar dilution MIC
Procedure: as §1

[33] = test system: Enterococcus faecalis T39-C11; test: Second screening, agar dilution MIC
Procedure: as §1

[34] = test system: Staphylococcus aureus 8147; test: Second screening, agar dilution MIC; conditions: Table 2
Procedure: as §1

[35] = test system: Staphylococcus aureus CIP 224; test: Second screening, agar dilution MIC
Procedure: as §1

[36] = test system: Staphylococcus aureus T1.1; test: Second screening, agar dilution MIC
Procedure: as §1

[37] = test system: Staphylococcus aureus T25.10; test: Second screening, agar dilution MIC
Procedure: as §1

[38] = test system: Staphylococcus aureus T25.3; test: Second screening, agar dilution MIC
Procedure: as §1

[39] = test system: Staphylococcus aureus T25.9; test: Second screening, agar dilution MIC
Procedure: as §1

[40] = test system: Staphylococcus aureus T26A4; test: Second screening, agar dilution MIC
Procedure: as §1

[41] = test system: Staphylococcus aureus T28.1; test: Second screening, agar dilution MIC
Procedure: as §1

[42] = test system: Staphylococcus aureus T36B1; test: Second screening, agar dilution MIC
Procedure: as §1

[43] = test system: Staphylococcus aureus T47A12; test: Second screening, agar dilution MIC
Procedure: as §1

[44] = test system: Staphylococcus aureus T6.7; test: Second screening, agar dilution MIC
Procedure: as §1

[45] = test system: Staphylococcus epidermidis 5001; test: Second screening, agar dilution MIC; conditions: Table 2
Procedure: as §1

[46] = test system: Staphylococcus lugdunensis T26A3; test: Second screening, agar dilution MIC; conditions: Table 2
Procedure: as §1

[47] = test system: Staphylococcus pettenkoferi T3.3; test: Second screening, agar dilution MIC
Procedure: as §1

[48] = test system: Staphylococcus saprophyticus 08237; test: Second screening, agar dilution MIC
Procedure: as §1

[49] = test system: Streptococcus agalactiae 13225; test: Second screening, agar dilution MIC
Procedure: as §1

[50] = test system: Streptococcus agalactiae 13226; test: Second screening, agar dilution MIC
Procedure: as §1

[51] = test system: Streptococcus agalactiae T25.7; test: Second screening, agar dilution MIC
Procedure: as §1

[52] = test system: Streptococcus agalactiae T38.2; test: Second screening, agar dilution MIC
Procedure: as §1

[53] = test system: Streptococcus agalactiae T40A2; test: Second screening, agar dilution MIC
Procedure: as §1

SMILES: CN[C@H](CC(C)C)C(=O)N[C@H]1C(=O)N[C@@H](CC(N)=O)C(=O)N[C@H]2C(=O)N[C@H]3C(=O)N[C@H](C(=O)N[C@H](C(=O)O)c4cc(O)cc(O)c4-c4cc3ccc4O)[C@H](O)c3ccc(c(Cl)c3)Oc3cc2cc(c3O[C@@H]2O[C@H](CO)[C@@H](O)[C@H](O)[C@H]2O[C@H]2C[C@](C)(N)[C@H](O)[C@H](C)O2)Oc2ccc(cc2Cl)[C@H]1O [VAN, Vancomycin]
- Susceptibility to VAN [1]: R (R > 16)
- Susceptibility to VAN [2]: R (R > 16)
- Susceptibility to VAN [3]: R (R > 16)
- Susceptibility to VAN [4]: R (R > 16)
- Susceptibility to VAN (Corynebacterium T25-17 [5]): S (Vancomycin (VAN) S ≤ 4)
- Susceptibility to VAN [6]: R (R > 16)
- Susceptibility to VAN [7]: R (R > 16)
- Susceptibility to VAN [8]: R (R > 16)
- Susceptibility to VAN [9]: S (Vancomycin (VAN) S ≤ 4)
- Susceptibility to VAN (Enterococcus sp. 8153): S (Vancomycin (VAN) S ≤ 4)
- Susceptibility to VAN (Escherichia coli 8138): R (R > 16)
- Susceptibility to VAN (Escherichia coli 8157): R (R > 16)
- Susceptibility to VAN [10]: R (R > 16)
- Susceptibility to VAN [11]: R (R > 16)
- Susceptibility to VAN [12]: R (R > 16)
- Susceptibility to VAN [13]: S (Vancomycin (VAN) S ≤ 4)
- Susceptibility to VAN (Proteus mirabilis 11060): R (R > 16)
- Susceptibility to VAN [14]: R (R > 16)
- Susceptibility to VAN [15]: R (R > 16)
- Susceptibility to VAN [16]: R (R > 16)
- Susceptibility to VAN (Salmonella sp. 11033): R (R > 16)
- Susceptibility to VAN [17]: R (R > 16)
- Susceptibility to VAN [18]: R (R > 16)
- Susceptibility to VAN [19]: S (Vancomycin (VAN) S ≤ 4)
- Susceptibility to VAN [20]: S (Vancomycin (VAN) S ≤ 4)
- Susceptibility to VAN [21]: S (Vancomycin (VAN) S ≤ 4)
- Susceptibility to VAN [22]: S (Vancomycin (VAN) S ≤ 4)
- Susceptibility to VAN [23]: S (Vancomycin (VAN) S ≤ 4)
- Susceptibility to VAN [24]: R (R > 16)
- Susceptibility to VAN [25]: R (R > 16)
- Susceptibility to VAN [26]: S (Vancomycin (VAN) S ≤ 4)
- Susceptibility to VAN [27]: S (Vancomycin (VAN) S ≤ 4)
- Susceptibility to VAN [28]: S (Vancomycin (VAN) S ≤ 4)
- Susceptibility to VAN (Corynebacterium T25-17 [29]): S (Vancomycin (VAN) S ≤ 4)
- Susceptibility to VAN [30]: S (Vancomycin (VAN) S ≤ 4)
- Susceptibility to VAN [31]: S (Vancomycin (VAN) S ≤ 4)
- Susceptibility to VAN [32]: S (Vancomycin (VAN) S ≤ 4)
- Susceptibility to VAN [33]: S (Vancomycin (VAN) S ≤ 4)
- Susceptibility to VAN [34]: S (Vancomycin (VAN) S ≤ 4)
- Susceptibility to VAN [35]: S (Vancomycin (VAN) S ≤ 4)
- Susceptibility to VAN [36]: S (Vancomycin (VAN) S ≤ 4)
- Susceptibility to VAN [37]: S (Vancomycin (VAN) S ≤ 4)
- Susceptibility to VAN [38]: S (Vancomycin (VAN) S ≤ 4)
- Susceptibility to VAN [39]: S (Vancomycin (VAN) S ≤ 4)
- Susceptibility to VAN [40]: S (Vancomycin (VAN) S ≤ 4)
- Susceptibility to VAN [41]: S (Vancomycin (VAN) S ≤ 4)
- Susceptibility to VAN [42]: S (Vancomycin (VAN) S ≤ 4)
- Susceptibility to VAN [43]: S (Vancomycin (VAN) S ≤ 4)
- Susceptibility to VAN [44]: S (Vancomycin (VAN) S ≤ 4)
- Susceptibility to VAN [45]: S (Vancomycin (VAN) S ≤ 4)
- Susceptibility to VAN [46]: S (Vancomycin (VAN) S ≤ 4)
- Susceptibility to VAN [47]: S (Vancomycin (VAN) S ≤ 4)
- Susceptibility to VAN [48]: S (Vancomycin (VAN) S ≤ 4)
- Susceptibility to VAN [49]: S (Vancomycin (VAN) S ≤ 4)
- Susceptibility to VAN [50]: S (Vancomycin (VAN) S ≤ 4)
- Susceptibility to VAN [51]: S (Vancomycin (VAN) S ≤ 4)
- Susceptibility to VAN [52]: S (Vancomycin (VAN) S ≤ 4)
- Susceptibility to VAN [53]: S (Vancomycin (VAN) S ≤ 4)
